According to patent US10004701B2, “Methods and compositions for treating infection” (UNIVERSITY OF ROCHESTER, priority 2012, dated 2018):
Where a name gives a salt, the structure may show the parent alone. Read-outs that look alike come from different tables or passages of the source.

Key:
Assay in all cases: AK assay 384-well format, Prestwick library screening
P. aeruginosa = type: cell-based, Pseudomonas aeruginosa; settings: 50 μM final drug concentration; for fold induction at 50 µM: Pseudomonas aeruginosa, 3 h
[1] = tested on: S. aureus strain USA300-0114; type: cell-based, Staphylococcus aureus; settings: 50 μM final drug concentration; for fold induction at 50 µM: Staphylococcus aureus, USA300, 3 h
E. cloacae = type: cell-based, Enterobacter cloacae; settings: 50 μM final drug concentration; for fold induction at 50 µM: Enterobacter cloacae, 3 h
E. faecium = type: cell-based, Enterococcus faecium; settings: 50 μM final drug concentration; for fold induction at 50 µM: Enterococcus faecium, 3 h
[2] = tested on: A. baumannii strain 98-37-09; type: cell-based, Acinetobacter baumannii; settings: 50 μM final drug concentration; for fold induction at 50 µM: Acinetobacter baumannii, 983709, 3 h
E. coli = type: cell-based, Escherichia coli; settings: 50 μM final drug concentration; for fold induction at 50 µM: Escherichia coli, 3 h
K. pneumoniae = type: cell-based, Klebsiella pneumoniae; settings: 50 μM final drug concentration; for fold induction at 50 µM: Klebsiella pneumoniae, 3 h
[3] = planktonic, cutoff for positive-scoring molecules 3-fold increase, read-out: AK-based Prestwick Library Screening Results, P. aeruginosa (fold increase in extracellular AK activity)
[4] = planktonic, cutoff for positive-scoring molecules 3-fold increase, read-out: AK-based Prestwick Library Screening Results, S. aureus (fold increase in extracellular AK activity)
[5] = planktonic, cutoff for positive-scoring molecules 3-fold increase, read-out: AK-based Prestwick Library Screening Results, E. cloacae (fold increase in extracellular AK activity)
[6] = planktonic, cutoff for positive-scoring molecules 3-fold increase, read-out: AK-based Prestwick Library Screening Results, E. faecium (fold increase in extracellular AK activity)
[7] = planktonic, cutoff for positive-scoring molecules 3-fold increase, read-out: AK-based Prestwick Library Screening Results, A. baumannii (fold increase in extracellular AK activity)
[8] = planktonic, cutoff for positive-scoring molecules 3-fold increase, read-out: AK-based Prestwick Library Screening Results, E. coli (fold increase in extracellular AK activity)
[9] = planktonic, cutoff for positive-scoring molecules 3-fold increase, read-out: AK-based Prestwick Library Screening Results, K. pneumoniae (fold increase in extracellular AK activity)

Question: Which results are given for CC(=O)OCC(=O)[C@@]1(O)CC[C@H]2[C@@H]3CCC4=CC(=O)CC[C@]4(C)[C@@]3(F)[C@@H](O)C[C@@]21C [Fludrocortisone acetate]?
Answer: fold induction at 50 µM (P. aeruginosa; planktonic P. aeruginosa, 384-well, cutoff for positive-scoring molecules 3-fold increase, read-out: AK-based Prestwick Library Screening Results: P. aeruginosa (increase in extracellular AK activity)): 1.2; fold induction at 50 µM ([1]; planktonic S. aureus, 384-well, cutoff for positive-scoring molecules 3-fold increase, read-out: AK-based Prestwick Library Screening Results: S. aureus (increase in extracellular AK activity)): 1; fold induction at 50 µM (E. cloacae; planktonic E. cloacae, 384-well, cutoff for positive-scoring molecules 3-fold increase, read-out: AK-based Prestwick Library Screening Results: E. cloacae (increase in extracellular AK activity)): 1.4; fold induction at 50 µM (E. faecium; planktonic E. faecium, 384-well, cutoff for positive-scoring molecules 3-fold increase, read-out: AK-based Prestwick Library Screening Results: E. faecium (increase in extracellular AK activity)): 1.1; fold induction at 50 µM ([2]; planktonic A. baumannii, 384-well, cutoff for positive-scoring molecules 3-fold increase, read-out: AK-based Prestwick Library Screening Results: A. baumannii (increase in extracellular AK activity)): 1.2; fold induction at 50 µM (E. coli; planktonic E. coli, 384-well, cutoff for positive-scoring molecules 3-fold increase, read-out: AK-based Prestwick Library Screening Results: E. coli (increase in extracellular AK activity)): 1.3; fold induction at 50 µM (K. pneumoniae; planktonic K. pneumoniae, 384-well, cutoff for positive-scoring molecules 3-fold increase, read-out: AK-based Prestwick Library Screening Results: K. pneumoniae (increase in extracellular AK activity)): 1

Question: Which fold induction at 50 µM (P. aeruginosa; planktonic P. aeruginosa, […], read-out: AK-based Prestwick Library Screening Results, P. aeruginosa (increase in extracellular AK activity)) does the source give for C[C@]12CC[C@H](O)C[C@H]1CC[C@@H]1[C@@H]2CC[C@]2(C)[C@@H](C3=CC(=O)OC3)CC[C@]12O [Digitoxigenin] here?
Answer: 0.8

Question: And the fold induction at 50 µM ([1]; planktonic S. aureus, […], read-out: AK-based Prestwick Library Screening Results, S. aureus (increase in extracellular AK activity))?
Answer: 0.6

Question: And the fold induction at 50 µM (E. cloacae; planktonic E. cloacae, […], read-out: AK-based Prestwick Library Screening Results, E. cloacae (increase in extracellular AK activity))?
Answer: 1.2

Question: What about the fold induction at 50 µM (E. faecium; planktonic E. faecium, […], read-out: AK-based Prestwick Library Screening Results, E. faecium (increase in extracellular AK activity)) of the same molecule?
Answer: 0.9

Question: What about the fold induction at 50 µM ([2]; planktonic A. baumannii, […], read-out: AK-based Prestwick Library Screening Results, A. baumannii (increase in extracellular AK activity)) of the same molecule?
Answer: 0.8

Question: And the fold induction at 50 µM (E. coli; planktonic E. coli, […], read-out: AK-based Prestwick Library Screening Results, E. coli (increase in extracellular AK activity))?
Answer: 0.9

Question: And the fold induction at 50 µM (K. pneumoniae; planktonic K. pneumoniae, […], read-out: AK-based Prestwick Library Screening Results, K. pneumoniae (increase in extracellular AK activity))?
Answer: 0.7

Question: For CCOc1ccc2c(c1)C(C)=CC(C)(C)N2 [Ethoxyquin], which fold induction at 50 µM (P. aeruginosa; [3]) is on record?
Answer: 1.1

Question: And the fold induction at 50 µM [1, 4]?
Answer: 1.1

Question: And the fold induction at 50 µM (E. cloacae; [5])?
Answer: 1.4

Question: What about the fold induction at 50 µM (E. faecium; [6]) of the same molecule?
Answer: 0.9

Question: What about the fold induction at 50 µM [2, 7] of the same molecule?
Answer: 0.9

Question: What about the fold induction at 50 µM (E. coli; [8]) of the same molecule?
Answer: 1.1

Question: What about the fold induction at 50 µM (K. pneumoniae; [9]) of the same molecule?
Answer: 0.9

Question: Which fold induction at 50 µM (P. aeruginosa; planktonic P. aeruginosa, cutoff for positive-scoring molecules 3-fold increase, read-out: AK-based Prestwick Library Screening Results, P. aeruginosa (increase in extracellular AK activity)) does the source give for CNc1ncnc2c1ncn2[C@@H]1O[C@H](CO)[C@@H](O)[C@H]1O [Compound N6-methyladenosine, N6-methyladenosine] here?
Answer: 0.6

Question: What about the fold induction at 50 µM ([1]; planktonic S. aureus, cutoff for positive-scoring molecules 3-fold increase, read-out: AK-based Prestwick Library Screening Results, S. aureus (increase in extracellular AK activity)) of the same molecule?
Answer: 0.5

Question: And the fold induction at 50 µM (E. cloacae; planktonic E. cloacae, cutoff for positive-scoring molecules 3-fold increase, read-out: AK-based Prestwick Library Screening Results, E. cloacae (increase in extracellular AK activity))?
Answer: 0.7

Question: What about the fold induction at 50 µM (E. faecium; planktonic E. faecium, cutoff for positive-scoring molecules 3-fold increase, read-out: AK-based Prestwick Library Screening Results, E. faecium (increase in extracellular AK activity)) of the same molecule?
Answer: 0.9

Question: And the fold induction at 50 µM ([2]; planktonic A. baumannii, cutoff for positive-scoring molecules 3-fold increase, read-out: AK-based Prestwick Library Screening Results, A. baumannii (increase in extracellular AK activity))?
Answer: 0.6

Question: And the fold induction at 50 µM (E. coli; planktonic E. coli, cutoff for positive-scoring molecules 3-fold increase, read-out: AK-based Prestwick Library Screening Results, E. coli (increase in extracellular AK activity))?
Answer: 0.6

Question: What about the fold induction at 50 µM (K. pneumoniae; planktonic K. pneumoniae, cutoff for positive-scoring molecules 3-fold increase, read-out: AK-based Prestwick Library Screening Results, K. pneumoniae (increase in extracellular AK activity)) of the same molecule?
Answer: 0.5

Question: With C[C@]12CC[C@@H]3c4ccc(O)cc4CC[C@H]3[C@@H]1CC[C@@H]2O [Estradiol-17 beta] as the molecule, how does the “AK-based Prestwick Library Screening Results, P. aeruginosa (increase in extracellular AK activity)” value (P. aeruginosa; planktonic P. aeruginosa, cutoff for positive-scoring molecules 3-fold increase) read?
Answer: 1.0

Question: And the “AK-based Prestwick Library Screening Results, S. aureus (increase in extracellular AK activity)” value ([1]; planktonic S. aureus, cutoff for positive-scoring molecules 3-fold increase)?
Answer: 0.8

Question: And the “AK-based Prestwick Library Screening Results, E. cloacae (increase in extracellular AK activity)” value (E. cloacae; planktonic E. cloacae, cutoff for positive-scoring molecules 3-fold increase)?
Answer: 1.3

Question: What about the “AK-based Prestwick Library Screening Results, E. faecium (increase in extracellular AK activity)” value (E. faecium; planktonic E. faecium, cutoff for positive-scoring molecules 3-fold increase) of the same molecule?
Answer: 0.9

Question: What about the “AK-based Prestwick Library Screening Results, A. baumannii (increase in extracellular AK activity)” value ([2]; planktonic A. baumannii, cutoff for positive-scoring molecules 3-fold increase) of the same molecule?
Answer: 0.8

Question: What about the “AK-based Prestwick Library Screening Results, E. coli (increase in extracellular AK activity)” value (E. coli; planktonic E. coli, cutoff for positive-scoring molecules 3-fold increase) of the same molecule?
Answer: 1.1

Question: And the “AK-based Prestwick Library Screening Results, K. pneumoniae (increase in extracellular AK activity)” value (K. pneumoniae; planktonic K. pneumoniae, cutoff for positive-scoring molecules 3-fold increase)?
Answer: 0.8

Question: For CCCCCN(CCCCC)C(=O)C(CCC(=O)O)NC(=O)c1ccc(Cl)c(Cl)c1 (centres unmarked) [Lorglumide sodium salt], which fold induction at 50 µM (P. aeruginosa; [3]) is on record?
Answer: 0.9

Question: What about the fold induction at 50 µM [1, 4] of the same molecule?
Answer: 0.3

Question: And the fold induction at 50 µM (E. cloacae; [5])?
Answer: 1.3

Question: What about the fold induction at 50 µM (E. faecium; [6]) of the same molecule?
Answer: 1

Question: What about the fold induction at 50 µM [2, 7] of the same molecule?
Answer: 0.8

Question: What about the fold induction at 50 µM (E. coli; [8]) of the same molecule?
Answer: 0.9

Question: What about the fold induction at 50 µM (K. pneumoniae; [9]) of the same molecule?
Answer: 0.7

Question: What does the source list for CC(C)C(=O)Nc1ccc([N+](=O)[O-])c(C(F)(F)F)c1 [Flutamide]?
Answer: fold induction at 50 µM (P. aeruginosa; 384-well format, […], read-out: AK-based Prestwick Library Screening Results, P. aeruginosa (increase in extracellular AK activity)): 0.8; fold induction at 50 µM ([1]; 384-well format, […], read-out: AK-based Prestwick Library Screening Results, S. aureus (increase in extracellular AK activity)): 0.4; fold induction at 50 µM (E. cloacae; 384-well format, […], read-out: AK-based Prestwick Library Screening Results, E. cloacae (increase in extracellular AK activity)): 0.7; fold induction at 50 µM (E. faecium; 384-well format, […], read-out: AK-based Prestwick Library Screening Results, E. faecium (increase in extracellular AK activity)): 1; fold induction at 50 µM ([2]; 384-well format, […], read-out: AK-based Prestwick Library Screening Results, A. baumannii (increase in extracellular AK activity)): 0.7; fold induction at 50 µM (E. coli; 384-well format, […], read-out: AK-based Prestwick Library Screening Results, E. coli (increase in extracellular AK activity)): 0.7; fold induction at 50 µM (K. pneumoniae; 384-well format, […], read-out: AK-based Prestwick Library Screening Results, K. pneumoniae (increase in extracellular AK activity)): 0.6

Question: CCOC(=O)[C@@](C)(N)Cc1ccc(O)c(O)c1 [Methyldopate hydrochloride] was tested. Which fold induction at 50 µM (P. aeruginosa; planktonic P. aeruginosa, positive cutoff 3-fold increase, read-out: AK-based Prestwick library screening result, P. aeruginosa (fold increase in extracellular AK activity)) did it give?
Answer: 1.1

Question: And the fold induction at 50 µM ([1]; planktonic S. aureus, positive cutoff 3-fold increase, read-out: AK-based Prestwick library screening result, S. aureus (fold increase in extracellular AK activity))?
Answer: 1.2

Question: And the fold induction at 50 µM (E. cloacae; planktonic E. cloacae, positive cutoff 3-fold increase, read-out: AK-based Prestwick library screening result, E. cloacae (fold increase in extracellular AK activity))?
Answer: 1.8

Question: What about the fold induction at 50 µM (E. faecium; planktonic E. faecium, positive cutoff 3-fold increase, read-out: AK-based Prestwick library screening result, E. faecium (fold increase in extracellular AK activity)) of the same molecule?
Answer: 1.1

Question: And the fold induction at 50 µM ([2]; planktonic A. baumannii, positive cutoff 3-fold increase, read-out: AK-based Prestwick library screening result, A. baumannii (fold increase in extracellular AK activity))?
Answer: 1.4

Question: And the fold induction at 50 µM (E. coli; planktonic E. coli, positive cutoff 3-fold increase, read-out: AK-based Prestwick library screening result, E. coli (fold increase in extracellular AK activity))?
Answer: 1.2

Question: And the fold induction at 50 µM (K. pneumoniae; planktonic K. pneumoniae, positive cutoff 3-fold increase, read-out: AK-based Prestwick library screening result, K. pneumoniae (fold increase in extracellular AK activity))?
Answer: 1.2
